From US10980805B2, “Aza-pyridone compounds and uses thereof” (Janssen BioPharma, Inc., priority 2013, dated 2021)
pEC50, pIC50: −log10 of the molar value.

What was measured:
[1] = test system: Influenza strain A549_A/WSN/33 (H1N1); assay: Influenza antiviral assay (neuraminidase fluorescence readout); type: cell-based, Influenza virus; details: Influenza A virus, read-out: % Inhibition (EC50 class, Table 2)
[2] = target: Full length EN PA (influenza PA endonuclease) (Influenza A virus, UniProt P15659); assay: EN PA FRET inhibition assay; type: biochemical; details: FRET probe, mean of a minimum of two independent experiments, read-out: Potency (IC50 class, Table 3)

Compound | pEC50 [1] | pIC50 [2]
CN1C[C@H](C2c3ccccc3CCc3cccnc32)n2ncc(=O)c(O)c2C1=O (stereo partly shown) [Compound 42-A] | > 4.70 | > 6.60
CC(C)N1C[C@@H](C(c2cccc(Cl)c2)c2cccc(Cl)c2)n2ncc(=O)c(O)c2C1=O [Compound 68-B] | > 4.70 | 6.00 to 6.60
CN1C[C@@H](C2c3ccc(F)cc3CCc3cc(F)ccc32)n2ncc(=O)c(O)c2C1=O [Compound 89-B] | > 4.70 | > 6.60
CC(C)N1CC(C(c2ccccc2)c2ccccc2)n2ncc(=O)c(O)c2C1=O (stereo not shown) [Compound 6] | > 4.70 | > 6.60
CN1CC(C(c2ccccc2)c2cccc(Cc3cnn(C)c3)c2)n2ncc(=O)c(O)c2C1=O (stereo not shown) [Compound 104] | > 4.70 | > 6.60
CCC#Cc1ccn([C@H](c2ccccc2)[C@@H]2CN(C)C(=O)c3c(O)c(=O)cnn32)n1 [Compound 124] | > 4.70 | 6.00 to 6.60
CC(C)C(=O)Oc1c2n(ncc1=O)[C@H](C1c3cccc(F)c3CCc3c(F)cccc31)CN(C(C)C)C2=O [Compound 114-B] | > 4.70 | ≤ 6.00
CC(C)Oc1cccc(C(c2ccccc2)[C@H]2CN(C)C(=O)c3c(O)c(=O)cnn32)c1 (stereo partly shown) [Compound 54] | 4.00 to 4.70 | > 6.60
O=C1c2c(O)c(=O)cnn2[C@H](C(c2ccccc2)c2ccccc2)CN1C1CCOCC1 [Compound 63-B] | > 4.70 | 6.00 to 6.60
CN1C[C@H](C2c3ccc(F)cc3CCc3c(F)cccc32)n2ncc(=O)c(O)c2C1=O (stereo partly shown) [Compound 81-A] | > 4.70 | > 6.60
CC(C)N1C[C@H](C2c3ccccc3CCc3ccccc32)n2ncc(=O)c(O)c2C1=O [Compound 17-A] | – | > 6.60
Cc1ccccc1CC1CN(C)C(=O)c2c(O)c(=O)cnn21 (stereo not shown) [Compound 4] | – | > 6.60
CCN1C[C@@H]([C@@H](c2ccccc2)c2cccc(Cl)c2)n2ncc(=O)c(O)c2C1=O [Compound 12-D] | – | 6.00 to 6.60
CN1CC(Cc2ccccc2)n2ncc(=O)c(O)c2C1=O (stereo not shown) [Compound 2] | – | > 6.60
CCC(CC)N1CC(C(c2ccccc2)c2ccccc2)n2ncc(=O)c(O)c2C1=O (stereo not shown) [Compound 43] | – | > 6.60
CCN1C[C@@H](C2c3ccccc3CCc3ccccc32)n2ncc(=O)c(O)c2C1=O [Compound 14-B] | – | > 6.60
CC(C)N1CC(=C(c2ccccc2)c2ccccc2)n2ncc(=O)c(O)c2C1=O [Compound 11] | – | > 6.60
CCN1C[C@H](C(c2ccccc2)c2cccc(Cl)c2)n2ncc(=O)c(O)c2C1=O (stereo partly shown) [Compound 12-C] | – | > 6.60
CC(C)N1C[C@@H](C(c2cccc(F)c2)c2cccc(F)c2)n2ncc(=O)c(O)c2C1=O [Compound 41-B] | – | 6.00 to 6.60
CC(C)N1C[C@@H](C(c2ccccc2)c2cccc(Cl)c2)n2ncc(=O)c(O)c2C1=O (single isomer, unassigned) [Compound 82-B] | – | 6.00 to 6.60
CN1CC(CCc2ccccc2)n2ncc(=O)c(O)c2C1=O (stereo not shown) [Compound 3] | – | > 6.60
CC(C)N1CC(C(c2cccc(Cl)c2)c2cccc(Cl)c2)n2ncc(=O)c(O)c2C1=O (stereo not shown) [Compound 44] | – | > 6.60
CC(N1CC(=C(c2ccccc2)c2ccccc2)n2ncc(=O)c(O)c2C1=O)C(F)(F)F (stereo not shown) [Compound 15] | – | ≤ 6.00
[2H]c1c([2H])c([2H])c(C(c2c([2H])c([2H])c([2H])c([2H])c2[2H])[C@H]2CN(C(C)C)C(=O)c3c(OC(=O)C(C)C)c(=O)cnn32)c([2H])c1[2H] [Compound 130] | > 4.70 | –
